In brackets after ≈: the same amount, converted by molar mass.
Experiments:
RKO-E6 cells [1] = test: Alamar Blue viability assay, RKO-E6; format: cell-based, human; conditions: for inhibition at 0.5 µg/mL: Homo sapiens, RKOE6, 0.5 μg/ml alone, read-out: growth inhibition by drug alone
Description: RKO colon carcinoma, human (ATCC, order # CRL-2577), RKO-E6 colon carcinoma transfected with HPV E6 inserted in pCMV.3 (ATCC, order # CRL-2578) were grown in MEM with 2 mM L-glutamine and Earle's BBS adjusted to contain 1.5 g/L NaHCO3, 0.1 mM non-essential amino acids and 1.0 mM sodium pyruvate, and supplemented with 10% fetal bovine serum, penicillin and streptomycin (pen/strep). Both cell lines were incubated at 37° C. in a humidified incubator containing 5% CO2.
The Alamar Blue assay incorporates a fluorimetric/colorimetric growth indicator that changes color in the response to chemical reduction by viable cells (Nociari 1998). Cells were seeded at a density of 3,000 cells (57 μl) per well in a 384-well black, clear-bottom plates using a syringe bulk dispenser (Zymark Sciclone ALH). Three microliters were removed from a compound daughter plate using a 384 fixed cannula head and added to the assay plate, making the final concentration 4 μg/ml. The plates were incubated for 24 h at 37° C. 10 μl of 40% Alamar Blue (Biosource Int., cat #DAL1100) solution in media was added to each well (1:10 dilution). The assay plates were incubated for 16h. Fluorescence intensity was determined using a Packard Fusion platereader with a 535 nm excitation filter and a 590 nm emission filter. The average fluorescence for the whole plate was used as a positive control. Average percentage inhibition for each well was determined using our freely available SLIMS software (Kelley et al., 2004).
The daughter plates for the 2-fold dilution series were prepared with a Zymark Sciclone ALH by diluting the replica daughter plates to obtain compound concentrations from 8 μg/ml-0.008 μg/ml (columns 8-18). Columns 1-7 were used as untreated control. RKO-E6 cells were seeded at the density of 3,000 per well in 55 μl, and 5 μl were added from the daughter plate. RKO cells were seeded at the density of 2,000 per well in 55 μl, and 5 μl were added from the daughter plate. The assay was incubated for 24 h at 37° C. 10% Alamar Blue was added to each well and the assay was incubated for 16 h (see above). Compounds for retesting were purchased from the manufacturers or from Sigma-Aldrich (see above). Stocks were prepared in DMSO at 4 mg/ml.
Each cell line (RKO, RKO-E6, HeLa and TC32) was treated with a dose combination matrix of doxorubicin and a selected hit compound. Each treatment was done in a triplicate in 384-well format. The average percent inhibition of cell proliferation, measured with Alamar Blue, was determined using the following formula: […]

RKO-E6 cells [2] = test: Flow cytometry cell cycle distribution, RKO-E6; format: cell-based, human; conditions: 24 h, propidium iodide
Description: RKO, RKO-E6 or HeLa cells were seeded in 20-cm dishes in 10 ml of growth medium. Cells were allowed to adhere and then treated with the selected compounds for 24 h. The treated cells were collected, washed 2× with PBS and counted. The cell pellet was re-suspended in 500 μl of ice cold PBS and 2-5 ml of cold 70% ethanol (−20° C.) were added. Cells were fixed for 1 h or overnight. 5-10 million cells were placed into a 15-ml conical tube and centrifuged at 1000 g. Cells were washed 2× with 1% calf serum in PBS. Cells were resuspended in 800 μl of 1% calf serum in PBS and 100 μl of Rnase (1 mg/ml) and 100 μl of propidium iodide (400 μg/ml) added. Cells were incubated at 37° C. for 30 min and then analyzed on flow cytometer.

p53 = test: Western blot of p53 (p21, MDM2) levels; format: cell-based, human; conditions: RKO-E6 cells; in words
Description: Protein content was quantified using a BioRad protein assay reagent (BioRad, cat #500-0006). Equal amounts of protein were resolved on SDS-polyacrylamide gels. Proteins were transferred onto a PVDF membrane, blocked with 5% milk, and incubated with the appropriate primary and secondary antibodies. […] To test for equivalent loading in each lane, blots were stripped, blocked and probed with an anti-eIF-4E antibody.

N548 mutant cells = test: in vitro; conditions: for selectivity profile of cell death rescue in panel of htt expressing cell lines: N63, N548, FL htt cell lines, in words; for EC50: read-out: EC50 based on activity in N548 mutant cells; for maximal fold induction: 72 h, read-out: N548 Mut: Max, maximum rescue expressed as fold over DMSO treated N548 mutant cells
Description: Embryonic rat striatal neurons were conditionally immortalized by stably transfecting a temperature-sensitive SV40 large T-antigen (T-ag) to generate the ST14A cell line. ST14A cells proliferate at the permissive temperature (33° C.), but stop dividing at 39° C., as a result of T-ag degradation. […] As htt protein context modulates polyQ toxicity, testing these different length htt proteins could provide insight into the basis for context dependence.
ST14A Assay System: Calcein acetoxylmethyl ester (AM) (Molecular Probes, Eugene, Oreg.) is a non-fluorescent, membrane-permeable compound that is cleaved by intracellular esterases, which subsequently forms the anionic, fluorescent compound, calcein, that cannot permeate the cell membrane. […] A fluorescence viability assay, that is based on conversion of a non-fluorescent substrate (calcein AM) to a fluorescent product by nonspecific esterases in live cells, was employed to monitor cell death in wild type (wt) ST14A-Htt and mut ST14A-Htt cell lines. Cell death is indicated by a decrease in fluorescence. […] 3 μl of each compound was transferred from daughter plates to triplicate assay plates for a final assay concentration of 4 μg/ml in 0.1% DMSO (10 μM for NINDS compounds). Cells were incubated at 33° C. for 3 h to enhance attachment and then shifted to 39° C. (with 5% CO2). After 3 days (d), cells were washed 10 times with phosphate buffered saline (PBS) leaving 20 μl residual PBS per well, and 20 μl of 2 μg/ml calcein AM (Molecular probes) in PBS was added per well. […] The fluorescence intensity in each well was normalized to the median of each plate. The median normalized fluorescence of each triplicate assay wells was determined. A well with more than 50% increase in intensity above the median signal intensity was considered a “hit.”
Assay Development: An assay was developed for detecting mutant htt-induced cell death in ST14A cells in a 384-well plate format. A calcein AM-based method was used to detect cell viability, and optimized the cell number and time course for this method. […] A cell number titration was performed to determine the cell density at which calcein fluorescence was not saturated and the coefficient of variation (CV) was low (FIG. 14A-B). A low CV is critical for a high-throughput assay as it decreases noise and enhances sensitivity. […] Next, the kinetics of the fluorescence signal were determined.
Next, the serum concentrations that induce cell death in these cells were determined. Cells were seeded in decreasing serum (IFS) concentrations (5 to 0%), and cell viability was assayed after 3 d using the calcein AM assay (FIG. 14E).
A Z′ value of greater than 0 is required for a usable assay, with a maximum value of 1.0 for an ideal assay. For the assay, calcein fluorescence was used on the day of seeding to represent 100% rescue. The difference in calcein fluorescence signal on the day of seeding and after different number of days under serum deprivation was determined and used to calculate the Z′ factor. […] About 47,000 compounds were assayed in a 384-well plate format in triplicate to enhance the reliability of the primary screen.

[3] = test system: microtubules in N548 mutant cells; test: β-tubulin indirect immunofluorescence; format: cell-based, rat; conditions: colchicine 400 nM, revertin-22 4 μg/ml, 8 h
Description: Cells were grown on glass coverslips in 10% IFS-containing media, treated with compounds and fixed in acetone/methanol (1:1 vol/vol). β-tubulin was detected using a mouse monoclonal antibody (clone TUB2.1, Sigma-Aldrich) followed by a rhodamine-conjugated goat anti-mouse antibody (Jackson Laboratory; Bar Harbor, Me.). Cells were viewed under a fluorescent microscope (ex 530/em 595 nm).

[4] = test system: ASH neurons in C. elegans HD model (pqe-1; Htn-Q150); test: Neuronal survival assay, worm HD model; format: in vivo; conditions: 2 d after treatment, revertin-2 0.8 mg/ml, revertin-1a 1 mg/ml, p<0.02
Description: One hundred synchronized L1 worms (pqe-1; Htn-Q150) (Faber P., et al, Proc Natl Acad Sci 99: 17131-6; Wood W., Cold Spring Harbor Laboratory, NY) were added to 5 wells (20 worms/well). Each well contained 50 μl food suspension (6.6 O.D.) pre-mixed with compound or DMSO in a 96-well plate. Worms were incubated for 2 d at 15° C., washed in S-media, immobilized with 5 mM sodium azide on a microscopic glass slide and GFP fluorescence was examined using an Axoplan2 fluorescence microscope (ex 485/em 535 nm). Live (GFP positive) Anterior Sensory Horn (ASH) neurons were counted in at least 50 worms (100 neurons). Data were subjected to a two-tailed Student t-test.
Worm HD Model. A C. elegans model of HD was optimized for testing compounds. In this model, larval ASH neurons that express mutant htt in a poly Q enhancer-1 mutant background, die over 2-3 days after hatching (Faber P, et al, Proc Natl Acad Sci USA 2002, 99: 17131-6). Neuronal death was monitored by loss of GFP expression in ASH neurons. Since the effective concentration of compounds in worms can vary widely from those in cell culture, concentrations to test in worms were based on an assay (FIG. 19). The effective concentrations in worms for all compounds were determined and tested for rescue of neuronal cell death. […] Thus, the ST14A cell culture model can be used to identify compounds that are active in in vivo models of HD. […] Compounds in this series were active in both the worm and PC12 HD models (FIG. 18B-C). The revertin-1 series has certain features making it an attractive candidate for lead development including different analogues that are active, a low molecular weight (˜400) making it likely that it can cross the blood brain barrier; furthermore, it is synthetically tractable.

[5] = test system: PC12 expressing Q103 exon 1 htt; test: PC12 HD model, Alamar Blue viability; format: cell-based; conditions: for EC50: Rattus norvegicus, PC-12, unit inferred; for PC12 rescue: percent increase in viability in compound treated cells above DMSO treated: — = no activity in the assay (footnote n.a.)
Description: For enhanced stability the repeat portion consists of alternating CAG/CAA repeats. […] Mutant (mut) htt was induced by the ecdysone receptor agonist, tebufenozide.
For the PC12 assay, 7500 cells/well were plated in 384-well plates in 57 μl of PC12 medium with tebufenozide (1 μM). Compounds (3 μl) from daughter plates were added to the cells and incubated at 37° C. After 48 h, 20 μl of 40% Alamar Blue (Biosource, CA) in PC12 media was added per well and cells incubated for 12 h at 37° C. […] Fluorescence intensity was determined using a Packard Fusion plate reader with an excitation filter centered on 535 nm and an emission filter centered on 590 nm. Average percentage inhibition at each concentration was calculated.

| Molecule | p53, p21, MDM2 levels (p53) | selectivity profile of cell death rescue in panel of htt expressing cell lines (N548 mutant cells) | microtubule disruption [3] | maximal fold induction (N548 mutant cells; Rattus norvegicus) | EC50 (N548 mutant cells; Rattus norvegicus) [µg/mL] | further results |
| --- | --- | --- | --- | --- | --- | --- |
| benzalkonium chloride | did not upregulate p53, p21, or caspase 3 | – | – | – | – | effect on doxorubicin's lethality in RKO-E6 cells (RKO-E6 cells [1]; co-treatment with 0.5 μg/ml doxorubicin, 24 h, in words): selectively increased doxorubicin's lethality; effect on camptothecin's lethality (RKO-E6 cells [1]; co-treatment with camptothecin, in words): did not synergize with camptothecin; induction of apoptosis (RKO-E6 cells [1]; in the absence of doxorubicin): did not induce apoptosis; cell cycle effect in RKO-E6 cells (RKO-E6 cells [2]): did not induce cell cycle arrest |
| Colchicine [reference compound] | – | rescued cell death in three htt expressing cell lines | depolymerize microtubules | – | – | N548 Mut: Max, maximum rescue expressed as fold over DMSO treated N548 mutant cells (N548 mutant cells; 0.5% IFS, 39° C., 3 d): 2.5 fold; EC50 (N548 mutant cells): 40 nM |
| CC(C)(C)CC(C)(C)c1ccc(OCCOCC[N+](C)(C)Cc2ccccc2)cc1 [benzethonium chloride] | did not upregulate p53, p21, or caspase 3 | – | – | – | – | cell cycle effect in RKO-E6 cells (RKO-E6 cells [2]): did not induce cell cycle arrest |
| CC1CN(C(C)c2nc3ccccc3c(=O)n2-c2ccc(F)cc2)CCC1C(=O)C1CC1 (stereo not shown) [revertin-23] | – | shared the selectivity profile with MTIs | disrupt microtubules | 2.5 | 2 | – |
| COc1cccc2c1C(=O)c1c(O)c3c(c(O)c1C2=O)C[C@@](O)(C(=O)CO)C[C@@H]3O[C@H]1C[C@H](N)[C@H](O)[C@H](C)O1 [doxorubicin] | caused p53 to accumulate | – | – | – | – | resistance of RKO-E6 cells compared to RKO cells (RKO-E6 cells [1]): two-fold to four-fold more resistant; inhibition at 0.5 µg/mL (RKO-E6 cells [1]; 24 h): 20% |
| CCCc1cc(OC(=O)c2ccccc2F)n(-c2cccc(F)c2)n1 [revertin-1a] | – | selectively rescued cell death in all mutant htt-expressing cell lines | – | 2.5 | 4 | ASH neuronal cell survival [4]: enhance ASH neuronal cell survival; EC50 [5]: 50 µg/mL (≈ 146 µM); PC12 rescue: percent increase in viability in compound treated cells above DMSO treated [5]: 21% |
| COc1c2c(cc3c1C(CC(=O)/C=C/c1ccco1)[N+](C)(C)CC3)OCO2 (stereo not shown) [revertin-2] | – | protective in all three mutant htt versions | – | 4 | 3 | ASH neuronal cell survival [4]: enhance ASH neuronal cell survival; ASH neuronal cell survival ([4]; listed as rev-2): rescued ASH neuronal cell death; EC50 [5]: 13 µg/mL; PC12 rescue: percent increase in viability in compound treated cells above DMSO treated [5]: 34% |
| CC[C@@]1(O)C(=O)OCc2c1cc1n(c2=O)Cc2cc3ccccc3nc2-1 [camptothecin, S-(+)-camptothecin] | caused p53 to accumulate | – | – | – | – | inhibition at 0.5 µg/mL (RKO-E6 cells [1]; 24 h): 20% |
| COc1cc2c(cc1OC)C(C)N(C(=O)NCc1ccccc1)CC2 (stereo not shown) [revertin-22] | – | shared the selectivity profile with MTIs | depolymerize microtubules | 2.5 | 1 | – |

— patent publication US20100022637A1, “IDENTIFICATION OF ANTI-CANCER COMPOUNDS AND COMPOUNDS FOR TREATING HUNTINGTON'S DISEASE AND METHODS OF TREATMENT THEREOF” (THE TRUSTEES OF COLUMBIA UNIVERSITY IN THE CITY OF NEW YORK, priority 2005, published 2010)
